Measurements: paper PMC7011920, “Synthesis and biological evaluation of stilbene derivatives coupled to NO donors as potential antidiabetic agents” (Journal of Enzyme Inhibition and Medicinal Chemistry, 2018)
Like-named read-outs stand apart in the source and are kept apart here. Values belong to the compound of their own block, whether it stands above or below them.

Tests used:
[1] = system: AGEs (advanced glycation end products) formation; test: In vitro inhibitory activity of AGEs formation (bovine serum albumin/glucose, fluorescence); details: 50% inhibition of fluorescence intensity of AGE relative to 0.1% DMSO; mean ± SD (n = 3)
Procedure: Advanced glycation end products are a group of complex and heterogeneous compounds, which are implicated in a number of biochemical abnormalities associated with diabetes[21]^,[22]. Therefore, the discovery of AGEs inhibitors would be beneficial to the prevention and treatment of diabetic or other pathogenic complications.
To prepare the AGE reaction solution, 10 mg/ml of bovine serum albumin in 50 mM PBS (pH 7.4) was added to 0.2 M glucose, and 0.02% sodium azide was added to prevent bacterial growth. The reaction mixture (3 ml) was then mixed with various concentrations (0.5–1000 µg/ml) of the target compounds (1 ml) dissolved in DMSO. After incubating at 37 °C for 14 d, the fluorescence intensity of AGE was determined by a fluorospectrophotometer (PE, Cincinnati, OH) with excitation and emission wavelengths at 350 nm and 420 nm[30], respectively. All experiments were run in triplicate. Aminoguanidine hydrochloride was used as a reference compound. The inhibition rate of AGEs formation and the IC50 value of each sample were calculated according to the formula. Inhibition rate %={[(AC−AB)−(AS−ASB)]/(AC−AB)}×100% where AC is the absorbance of control group (1.0 ml glucose +1.0 ml bovine serum albumin +1.0 ml sodium azide +1.0 ml DMSO); AB is the absorbance of blank group (1.0 ml PBS +1.0 ml bovine serum albumin +1.0 ml sodium azide +1.0 ml DMSO); AS is the absorbance of sample group (1.0 ml glucose +1.0 ml bovine serum albumin +1.0 ml sodium azide +1.0 ml target compound solution or aminoguanidine hydrochloride solution); ASB is the absorbance of sample blank group (1.0 ml PBS +1.0 ml bovine serum albumin +1.0 ml sodium azide +1.0 ml target compound solution or aminoguanidine hydrochloride solution).

[2] = target: T1, α-Glucosidase (Saccharomyces cerevisiae, UniProt P53341); test: biochemical
T1 construct: purchased Sigma Aldrich G0660-750UN
T1 sequence (P53341 whole entry): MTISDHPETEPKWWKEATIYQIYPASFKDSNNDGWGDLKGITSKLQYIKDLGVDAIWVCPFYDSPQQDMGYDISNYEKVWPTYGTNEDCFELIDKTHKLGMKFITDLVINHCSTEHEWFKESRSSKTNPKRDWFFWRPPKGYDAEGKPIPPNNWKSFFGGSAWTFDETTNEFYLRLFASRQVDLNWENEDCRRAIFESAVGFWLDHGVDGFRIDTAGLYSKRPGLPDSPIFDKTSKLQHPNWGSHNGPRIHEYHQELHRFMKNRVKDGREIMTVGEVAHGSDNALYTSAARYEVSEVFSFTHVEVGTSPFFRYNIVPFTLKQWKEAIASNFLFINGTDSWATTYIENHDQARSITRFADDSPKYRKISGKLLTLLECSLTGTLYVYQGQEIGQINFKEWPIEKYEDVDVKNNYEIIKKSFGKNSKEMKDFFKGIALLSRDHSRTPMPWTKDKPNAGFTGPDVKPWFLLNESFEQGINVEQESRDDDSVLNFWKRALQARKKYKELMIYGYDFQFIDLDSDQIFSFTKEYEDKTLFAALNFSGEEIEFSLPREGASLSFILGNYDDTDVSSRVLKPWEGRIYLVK
Procedure: α-Glucosidases, enzymes anchored in the brush border of the small intestine, are responsible for catalysing the hydrolysis of carbohydrates.
α-Glucosidase (G0660-750UN, Sigma Aldrich, St. Louis, MO) and 4-nitrophenyl α-D-glucopyranoside (PNPG, Macklin) were dissolved in phosphate buffer (pH 6.8, 100 mM), and the test compounds were dissolved in DMSO solution. The experiment was divided into blank group, control group, sample blank group and sample group. The reagents were loaded in 96-well plates at the dose of the table (Table 3). The solution was bathed in 37 °C water for 10 min, after the end, enzyme solution was added. After reaction at 37 °C for 20 min, 70 µL Na2CO3 solution ([…]) was added to stop the reaction. All experiments were run in triplicate. […] Since PNPG can produce glucose and p-nitrophenol (PNP) under the action of α-glucosidase, PNP has the greatest absorption at 405 nm. The absorbance was determined by the microplate reader, and the inhibition rate of α-glucosidase and the IC50 value of each sample were calculated according to the formula. Inhibition rate %={[(AC−AB)−(AS−ASB)]/(AC−AB)}×100% where AC is the absorbance of control group; AB is the absorbance of blank group; AS is the absorbance of sample group; ASB is the absorbance of sample blank group.

[3] = target: T2, aldose reductase (ALR2) (Mus musculus, UniProt P45376); test: In vitro ALR2 inhibitory activity (crude enzyme, NADPH decrease at 340 nm); assay type: biochemical, mice
T2 construct: After homogenisation and centrifugation, the crude ALR2 from mice was obtained; from tissue
Procedure: The enzyme aldose reductase (ALR2) is a member of the aldo–keto reductase superfamily. The development and progression of chronic diabetic complications are confirmed to be quite related to the activation and/or over expression of ALR2[25]. Therefore, ALR2 inhibitors may play a critical role in preventing or treating these complications.
After homogenisation and centrifugation, the crude ALR2 from mice was obtained. The inhibitory activity of the compounds on ALR2 was carried out using crude enzyme and different concentrations of the compounds (1–1000 µg/ml) in 200 mM PBS (pH 6.2) containing 0.10 mM NADPH. The reaction was initiated by addition of glyceraldehyde and the decrease in the optical density of NADPH at 340 nm was recorded for 3 min. All experiments were run in triplicate. IC50 of the compounds was calculated. The flavonoid quercetin was used as a reference in the ALR2 assay.

[4] = system: STZ-induced diabetic mice; test: Acute hypoglycaemic assay in STZ-diabetic mice; assay type: in vivo; details: for Blood glucose concentration: mean ± SEM, six mice
Procedure: The antidiabetic activity was determined by using a standard method. […] Especially, compound 7c caused significant decreases in blood glucose levels when compared with vehicle-treated groups (p < .05). […] In STZ-diabetic animals, the hypoglycaemic effect of pterostilbene (40 mg/kg of bw) was larger than 50% since 5 h and persisted throughout the experiment. Target compound 7c (40 mg/kg of bw) caused significant decreases in blood glucose levels compared with pterostilbene (40 mg/kg of bw).
Type II DM was induced in mice by a single intraperitoneal injection of freshly prepared STZ (Sigma Aldrich, St. Louis, MO) dissolved in 0.1 M citrate buffer, pH 4.5, in a […] of 120 mg/kg of bw. After seven days of STZ administration, blood glucose levels of each mouse were determined. Mice with blood glucose levels higher than 11 mM were considered diabetic and were included in the study.
STZ-induced diabetic mice and normal mice were placed in single cages with wire-net floors and deprived of food for 12 h before experimentation but allowed free access to tap water throughout. The compounds (at the doses of 10, 40, and 100 mg/kg of bw) were suspended in 0.05% Tween-80 in saline solution. Glibenclamide (10 mg/kg of bw) was suspended in the same vehicle. The target compounds were freshly prepared immediately before experimentation and administered by the intragastrical route at the doses of 10 ml/kg of bw. Control mice received only the vehicle (0.05% Tween-80 in saline solution) by the same route. Blood glucose levels were measured at 0, 1.5, 3, 5, 7, and 9 h after drugs administration.

[5] = read-out: IC50 value, α-Glucosidase inhibitory activity
[6] = read-out: IC50 value, ALR2 inhibitory activity
[7] = dose 40 mg/kg per os, 1.5 h vs 0 h
[8] = dose 40 mg/kg per os, 3 h vs 0 h
[9] = dose 40 mg/kg per os, 5 h vs 0 h
[10] = dose 40 mg/kg per os, 7 h vs 0 h
[11] = dose 40 mg/kg per os, 9 h vs 0 h

IC50 [1]: 2.9 ± 0.09 µM | melting point: 142.2 to 143.2 °C | IC50 [2, 5]: > 1000 µM | IC50 [3, 6]: > 1000 µM
SMILES: COc1cc(/C=C/c2ccc(OCCO[N+](=O)[O-])cc2)cc(OC)c1 [3a, O4′-Nitrooxyethyl pterostilbene]

IC50 [1]: 2.39 ± 0.11 µM | melting point: 110.9 to 111.3 °C | IC50 [2, 5]: > 1000 µM | IC50 [3, 6]: > 1000 µM
SMILES: COc1cc(/C=C/c2ccc(OCCCCO[N+](=O)[O-])cc2)cc(OC)c1 [3b]

SMILES: N=C(N)NN [AG, amino guanidine, reference compound]
IC50 [1]: 283 ± 8.52 µM

SMILES: COc1ccc(Cl)cc1C(=O)NCCc1ccc(S(=O)(=O)NC(=O)NC2CCCCC2)cc1 [Glibenclamide, reference compound]
Blood glucose concentration ([4]; dose 10 mg/kg per os, 0 h): 20.2 ± 5.4 mM | Blood glucose concentration ([4]; dose 10 mg/kg per os, 1.5 h): 11.6 ± 4.9 mM | % Variation of glycaemia ([4]; dose 10 mg/kg per os, 1.5 h vs 0 h): –42.63% | Blood glucose concentration ([4]; dose 10 mg/kg per os, 3 h): 7.6 ± 3.9 mM | % Variation of glycaemia ([4]; dose 10 mg/kg per os, 3 h vs 0 h): –62.32% | Blood glucose concentration ([4]; dose 10 mg/kg per os, 5 h): 6.1 ± 3.6 mM | % Variation of glycaemia ([4]; dose 10 mg/kg per os, 5 h vs 0 h): –69.58% | Blood glucose concentration ([4]; dose 10 mg/kg per os, 7 h): 5.7 ± 3.6 mM | % Variation of glycaemia ([4]; dose 10 mg/kg per os, 7 h vs 0 h): –71.84% | Blood glucose concentration ([4]; dose 10 mg/kg per os, 9 h): 5.6 ± 3.6 mM | % Variation of glycaemia ([4]; dose 10 mg/kg per os, 9 h vs 0 h): –72.11%

IC50 [1]: 1.99 ± 0.51 µM | IC50 [2, 5]: > 1000 µM | IC50 [3, 6]: > 1000 µM
SMILES: COc1cc(/C=C/c2ccc(O)cc2)cc(OC)c1 [Pterostilbene, reference compound]
hypoglycaemic effect ([4]; 40 mg/kg of bw, STZ-diabetic animals, since 5 h and throughout the experiment): > 50% | Blood glucose concentration ([4]; dose 40 mg/kg per os, 0 h): 17.2 ± 7.0 mM | Blood glucose concentration ([4]; dose 40 mg/kg per os, 1.5 h): 12.1 ± 6.4 mM | % Variation of glycaemia [4, 7]: –29.91% | Blood glucose concentration ([4]; dose 40 mg/kg per os, 3 h): 10.2 ± 6.2 mM | % Variation of glycaemia [4, 8]: –40.89% | Blood glucose concentration ([4]; dose 40 mg/kg per os, 5 h): 8.4 ± 5.6 mM | % Variation of glycaemia [4, 9]: –51.42% | Blood glucose concentration ([4]; dose 40 mg/kg per os, 7 h): 7.7 ± 5.3 mM | % Variation of glycaemia [4, 10]: –55.36% | Blood glucose concentration ([4]; dose 40 mg/kg per os, 9 h): 6.9 ± 4.3 mM | % Variation of glycaemia [4, 11]: –59.82%

SMILES: O=c1c(O)c(-c2ccc(O)c(O)c2)oc2cc(O)cc(O)c12 [Quercetin, reference compound]
IC50 [3]: 3.71 ± 0.29 µM

SMILES: Oc1ccc(/C=C/c2cc(O)cc(O)c2)cc1 [Resveratrol, reference compound]
IC50 [1]: 0.83 ± 0.21 µM | Blood glucose concentration ([4]; dose 40 mg/kg per os, 0 h): 20.0 ± 2.6 mM | Blood glucose concentration ([4]; dose 40 mg/kg per os, 1.5 h): 16.3 ± 2.9 mM | % Variation of glycaemia [4, 7]: –18.42% | Blood glucose concentration ([4]; dose 40 mg/kg per os, 3 h): 14.0 ± 2.0 mM | % Variation of glycaemia [4, 8]: –29.83% | Blood glucose concentration ([4]; dose 40 mg/kg per os, 5 h): 12.4 ± 2.1 mM | % Variation of glycaemia [4, 9]: –38.08% | Blood glucose concentration ([4]; dose 40 mg/kg per os, 7 h): 11.2 ± 1.8 mM | % Variation of glycaemia [4, 10]: –44.25% | Blood glucose concentration ([4]; dose 40 mg/kg per os, 9 h): 10.7 ± 1.4 mM | % Variation of glycaemia [4, 11]: –46.33% | IC50 [2]: 242 ± 17 µM | IC50 [3, 6]: 17 ± 0.31 µM
